The source of these data is patent US20190083521A1, “COMBINATION THERAPY FOR TREATING CANCER” (Epizyme, Inc., priority 2014, published 2019).

Where only a bound is given, the exact number is not on record here.

The test system of one assay is THP-1 (MLL-AF9) cells. Kind of assay: Example 7 retest: EPZ-5676 pre-treatment, second compound 72 h, Cell Titer Glo, growth inhibition. Format: cell-based. Further details: GI100: unit not given here. Conditions: NRAS G12D. As to the method: Cells were split using EPZ-5676 or DMSO containing growth media and further incubated for an additional 3-day pre-treatment time. Cells were finally seeded in growth media containing EPZ-5676 or DMSO in 96-well plates. Cells were then treated with a second compound for 72 hours. After this time, plates were developed for endpoint analysis using Cell Titer Glo to measure ATP content, which is used as an indicator of cell viability.
(§1) “N/D” means the GI100 of the second compound could not be determined for both conditions and “-” means not tested.
(§2) Growth Inhibition (GI) as a measure of cell viability: The cell viability of vehicle was measured at the time of dosing the second agent (T0) and after seventy-two hours (T72). A GI reading of 0% represents no growth inhibition—cells treated with test compound as compared to T72 vehicle signals were measured. […] A GI 200% represents complete death of all cells in the culture well. Compounds reaching an activity plateau of GI 200% are considered cytotoxic. GI is calculated by applying the following test and equation: […]

The test system of assay [1] is OCI-AML-4 (MLL-ENL) cells. The description is as above. Format: cell-based. Particulars: OCI-AML-4 (MLL-ENL); for Combination result with EPZ-5676, Retest: 300 nM EPZ-5676 pre-treatment vs DMSO. As for the experimental part:
(§3) Cells were then treated with a second compound for 72 hours. After this time, plates were developed for endpoint analysis using Cell Titer Glo to measure ATP content, which is used as an indicator of cell viability.
as §1
(§4) Growth Inhibition (GI) as a measure of cell viability: The cell viability of vehicle was measured at the time of dosing the second agent (T0) and after seventy-two hours (T72). […] A GI 200% represents complete death of all cells in the culture well. Compounds reaching an activity plateau of GI 200% are considered cytotoxic. GI is calculated by applying the following test and equation: […]

In a further assay the test system is RS4-11 (MLL-AF4) cells. The assay is described as above. Format: cell-based. Further details: GI100: unit not given here. Particulars: RS4-11 (MLL-AF4), Ras mutation status: None known, second compound, 72 h; for GI50: Homo sapiens. As to the method:
as §3, §1, §4

Another assay deals with ML-2 (MLL-AF6) cells. The description is as above. Format: cell-based. Further details: GI100: unit not given here. Conditions: ML-2 (MLL-AF6), KRAS A146T (het); for GI50 / GI100: second compound, 72 h. As to the method:
as §3, §1, §4

In the next assay the test system is SKM-1 (non-MLLr) cells. The description is as above. Format: cell-based, human. More on the design: GI100: unit not given here. Conditions: SKM-1 (non-MLLr); for Combination result with EPZ-5676, Retest: 300 nM EPZ-5676 pre-treatment vs DMSO; for Result (combination with EPZ-5676) / GI50 / GI100: KRAS K117N (homo); for GI50 / GI100: second compound, 72 h. As for the experimental part: as §3, §1, §4

Assay [2] concerns MOLM-13 (MLL-AF9) cells. Described as above. Format: cell-based, human. More on the design: GI100: unit not given here. Conditions: MOLM-13 (MLL-AF9); for GI50: Homo sapiens; for GI50 / GI100: second compound, 72 h. As to the method:
as §3, §1, §4

Assay [3] relates to MOLM-13 (MLL-AF9) cells. Kind of assay: Combination proliferation assay with Compound A2 (CellTiter-Glo, Chou-Talalay CI). Format: cell-based, human. Conditions: MOLM-13 (MLL-AF9); 7 Day Cotreatment Model. As for the experimental part: (§5) The acute myelogenous leukemia cell lines MV4-11 (MLL-AF4) and MOLM-13 (MLL-AF9) were obtained from American Type Culture Collection (ATCC; Rockville, Md.) and Deutsche Sammlung von Mikroorganismen and Zellkulturen (DSMZ; Braunschweig, Germany) respectively.
(§6) Studies were performed using MLL-rearranged cell lines in vitro to evaluate the anti-proliferative effect of a combination of two agents together on cell growth. Initial proliferation studies were performed to determine the IC50 of a given compound in each cell line. The cell counts were measured by ATP quantitation using the Promega Cell Titer Glo kit and luminescence values corresponded to the amount of ATP in a given well.
(§7) Compounds were evaluated for synergy in the co-treatment phase by testing the compounds in a concentration range which was bracketed around their IC50 values. The compounds were plated to a 96 well plate in a matrix format (FIG. 3) which includes increasing concentrations of each drug in the combination in a constant ratio, in addition to the effect of each compound alone in the study. Cells were seeded and grown in the log-linear phase for 3 or 7 days in the co-treatment phase. Minimum inhibition (DMSO alone) controls were used in each plate to calculate fraction affected (Fa) of a test well. DMSO concentration was kept at 0.1% v/v.
(§8) The drug combination analysis was performed utilizing the Chou-Talalay method Synergy was determined using the software package Calcusyn by Biosoft. The combination index (CI) is a quantitative term used to describe the level of synergy or antagonism in a given test system. A combination index less than one indicates synergy, and a CI greater than one indicates antagonism. Further, strong synergism is achieved when the CI value falls below 0.3.
(§9) The HP-D300 digital dispenser (Tecan) was used to dispense compounds in a combinatorial matrix. […] Cell viability was measured via ATP content using CellTiter-Glo® (Promega).
(§10) Viability was determined using CellTiter-Glo® (Promega).
Cell viability was measured via ATP content using CellTiter-Glo® (Promega).
(§11) Proliferation studies were performed using MOLM-13, MV4-11 and SKM-1 cell lines in vitro to evaluate the cancer cell killing effect of a combination of two agents together on cell growth. Initial proliferation studies were performed to determine the IC50 values of a given compound in each cell line. The cell counts were measured by ATP quantitation using the Promega Cell Titer Glo kit and luminescence values correspond to the amount of ATP in a given well.
(§12) These studies were performed to evaluate both the combinatorial effect of compounds on cell killing and the durability of the effect by washing out one of the agents.
(§13) Compounds evaluated for synergy in the co-treatment phase were tested in a range which was bracketed around the IC50's. The compounds were plated to a 96 well plate in a matrix format which includes increasing concentrations of each drug in the combination in a constant ratio, in addition to the effect of each compound alone in the study. Cells were seeded and grown in the log-linear phase for 3 or 7 days in the cotreatment phase. Maximum and minimum inhibition (DMSO alone) controls were used in each plate to calculate fraction affected (Fa) of a test well. DMSO concentration was kept at 0.1% v/v. The drug combination analysis was performed utilizing the Chou-Talalay method. Synergy was determined using the software package Calcusyn by Biosoft. The combination index (CI) is the term used to describe the level of synergy or antagonism in a given test system. A combination index less than one indicates synergy, and a CI greater than one indicates antagonism.
(§14) The drug combination analysis was performed using the Chou-Talalay method. Graphs representing values of combination index (CI) versus Fractional effect (Fa) known as Fa-CI plots were generated and synergy was evaluated.

The next assay has as its system MV4-11 (MLL-AF4) cells. Described as above. Format: cell-based, human. Conditions: MV4-11 (MLL-AF4); 7 Day Cotreatment Model. As for the experimental part: as §5, §6, §7, §8, §9, §10, §11, §12, §13
The drug combination analysis was performed using the Chou-Talalay method. Graphs representing values of combination index (CI) versus Fractional effect (Fa) known as Fa-CI plots were generated and synergy was evaluated. Drug synergy was statistically defined by CI values less than 1, antagonism by CI>1 and additive effect by CI equal to 1.

The test system of assay [4] is SKM-1 (non-MLL-rearranged AML) cells. The description is as above. Format: cell-based, human. Particulars: SKM-1; Compound A2 concentrations greater than 1000 nM. As for the experimental part:
Graphs representing values of combination index (CI) versus Fractional effect (Fa) known as Fa-CI plots were generated and synergy was evaluated.
as §10
MV4-11 cells were maintained in IMDM supplemented with 10% fetal bovine serum. MOLM-13 and SKM-1 cells were maintained in Roswell Park Memorial Institute medium (RPMI) supplemented with 10% fetal bovine serum. They were cultured in flasks or plates in a humidified 5% CO2 atmosphere.
as §11, §13, §14

For assay [5], the system named is MOLM-13 (MLL-AF9) cells. Kind of assay: Example 7 primary screen: 300 nM EPZ-5676 pre-treatment, second compound 72 h, ATPLite, GI100 shift. Particulars: MOLM-13 (MLL-AF9); 300 nM EPZ-5676 pre-treatment vs DMSO. Format: cell-based, human. As to the method:
Cells were split using EPZ-5676 or DMSO containing growth media and further incubated for an additional 3-day pre-treatment time. Cells were finally seeded in growth media containing EPZ-5676 or DMSO in 384-well plates at 500 cell/well density. Cells were then equilibrated in incubators for 24 hours before treatment with a second compound. Treated assay plates were incubated with a second compound for 72 hours. After this time, plates were developed for endpoint analysis using ATPLite to measure ATP content, which is used as an indicator of cell viability.
as §1, §2

[6] abbreviates: NRAS Q61R (het), second compound, 72 h.
[7] abbreviates: Ras mutation status: None known.

On to `Cn1nccc1Nc1nccc(-c2ccn([C@H](CO)c3ccc(Cl)c(F)c3)c(=O)c2)n1` [GDC0994], for which the GI50 in the assay on THP-1 (MLL-AF9) cells was 2850 nM; in [1] (setting [6]), 904 nM; with RS4-11 (MLL-AF4) cells, 1300 nM; in the assay on ML-2 (MLL-AF6) cells it was 590 nM; with SKM-1 (non-MLLr) cells it was 270 nM; with MOLM-13 (MLL-AF9) cells [2] (setting [7]), 3080 nM. Also, the GI100 in the assay on THP-1 (MLL-AF9) cells is given as >10; in assay [1] (setting [6]) it was 3.068; with RS4-11 (MLL-AF4) cells it was 2.505; in the assay on ML-2 (MLL-AF6) cells, 2.55; in the assay with SKM-1 (non-MLLr) cells it was 1.84; in the assay with MOLM-13 (MLL-AF9) cells [2] (setting [7]), 4.26. Besides, the “Combination result with EPZ-5676, Retest” value (in assay [1]; in the assay on SKM-1 (non-MLLr) cells) was “Synergy (considered synergistic if the GI100 (Growth inhibition 100) value of the second compound decreased by 2-fold or more when EPZ-5676 was added as compared to the DMSO control)” each time. Further, the “Result (combination with EPZ-5676)” value (in assay [1] (NRAS Q61R (het)); in the assay with SKM-1 (non-MLLr) cells) was “Synergy (considered synergistic if the GI100 (Growth inhibition 100) value of the second compound decreased by 2-fold or more when EPZ-5676 was added as compared to the DMSO control)” each time.
For `C[C@]12C=CC(=O)C=C1CC[C@@H]1[C@@H]2[C@@H](O)C[C@@]2(C)[C@H]1CC[C@]2(O)C(=O)CO` [Prednisolone], the “Combination effect with Compound A2 (Table 4)” value with MOLM-13 (MLL-AF9) cells [3] and in the assay on MV4-11 (MLL-AF4) cells was “antagonism” throughout. For the same compound, in assay [4], the “Antiproliferative activity in presence of Compound A2” value was “enhanced antiproliferative activity”.
On to `Cn1c(Nc2ccc(C(F)(F)F)cc2)nc2cc(Oc3ccnc(-c4ncc(C(F)(F)F)[nH]4)c3)ccc21` [RAF265], for which the “Combination result with EPZ-5676, Primary screen” value with MOLM-13 (MLL-AF9) cells [5] is recorded as “Synergy (considered synergistic if the GI100 (Growth inhibition 100) value of the second compound decreased by 2-fold or more when EPZ-5676 was added as compared to the DMSO control)”.
Turning to `CC(C)Nc1cc(-c2c[nH]c(C(=O)N[C@H](CO)c3cccc(Cl)c3)c2)c(Cl)cn1` [Ulixertinib], the GI50 was 810 nM in the assay with THP-1 (MLL-AF9) cells; 2100 nM in [1] (setting [6]); > 10000 nM with RS4-11 (MLL-AF4) cells; 630 nM with ML-2 (MLL-AF6) cells; 440 nM with SKM-1 (non-MLLr) cells; 1670 nM in the assay with MOLM-13 (MLL-AF9) cells [2] (setting [7]). The “Combination result with EPZ-5676, Retest” value (in [1]; in the assay with SKM-1 (non-MLLr) cells; with MOLM-13 (MLL-AF9) cells [2] (150 nM EPZ-5676 pre-treatment vs DMSO)) was “Synergy (considered synergistic if the GI100 (Growth inhibition 100) value of the second compound decreased by 2-fold or more when EPZ-5676 was added as compared to the DMSO control)” each time. Further, the “Result (combination with EPZ-5676)” value (in assay [1] (NRAS Q61R (het)); in the assay on ML-2 (MLL-AF6) cells; in the assay on SKM-1 (non-MLLr) cells; with MOLM-13 (MLL-AF9) cells [2] (setting [7])) was “Synergy (considered synergistic if the GI100 (Growth inhibition 100) value of the second compound decreased by 2-fold or more when EPZ-5676 was added as compared to the DMSO control)” throughout. In addition, the GI100 is reported as >10 in the assay on RS4-11 (MLL-AF4) cells, 2.711 in the assay with ML-2 (MLL-AF6) cells, 1.500 in the assay with SKM-1 (non-MLLr) cells and 3.96 in the assay on MOLM-13 (MLL-AF9) cells [2] (setting [7]).
